Laboratory results taken from publication PMC9228872, “Repositioning of Quinazolinedione-Based Compounds on Soluble Epoxide Hydrolase (sEH) through 3D Structure-Based Pharmacophore Model-Driven Investigation” (Molecules, 2022).

Key:
[1] = target: T1, soluble epoxide hydrolase (sEH) (Homo sapiens, UniProt P34913); assay: cell-free fluorescence assay with PHOME substrate, single concentration […]; type: biochemical; settings: read-out: sEH Residual Activity (%)
T1 construct: gene EPHX2; human recombinant sEH; C-terminal hydrolase domain activity measured
T1 sequence (P34913 1-555): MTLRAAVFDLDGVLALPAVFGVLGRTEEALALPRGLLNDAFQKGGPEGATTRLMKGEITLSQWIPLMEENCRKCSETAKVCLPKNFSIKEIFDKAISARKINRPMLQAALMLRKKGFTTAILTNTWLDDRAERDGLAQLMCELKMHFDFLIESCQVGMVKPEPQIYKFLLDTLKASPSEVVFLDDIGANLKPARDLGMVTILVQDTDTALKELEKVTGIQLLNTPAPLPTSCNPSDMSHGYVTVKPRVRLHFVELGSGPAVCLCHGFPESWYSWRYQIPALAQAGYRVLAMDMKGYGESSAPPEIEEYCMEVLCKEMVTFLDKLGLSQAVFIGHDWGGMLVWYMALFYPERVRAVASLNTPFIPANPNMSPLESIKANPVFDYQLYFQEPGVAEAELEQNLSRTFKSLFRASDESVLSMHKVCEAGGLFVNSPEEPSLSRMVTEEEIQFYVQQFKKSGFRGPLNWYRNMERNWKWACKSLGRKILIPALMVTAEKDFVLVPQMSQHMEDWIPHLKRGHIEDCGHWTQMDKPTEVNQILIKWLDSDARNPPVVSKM

[2] = target: T1, soluble epoxide hydrolase (sEH); assay: cell-free fluorescence assay with PHOME substrate, concentration-response; type: biochemical

Structure (SMILES)	remaining activity at 10 µM [1]	IC50 [2]
O=C(CCCCCn1c(=O)[nH]c2ccccc2c1=O)Nc1ccc2ncsc2c1 [compound 8, N-(benzo[d]thiazol-6-yl)-6-(2,4-dioxo-1,2-dihydroquinazolin-3(4H)-yl)hexanamide]	51.7 ± 3.3%	–
O=C(CCCCn1c(=O)[nH]c2ccccc2c1=O)Nc1ccc2c(c1)OCCO2 [compound 3, N-(2,3-dihydrobenzo[b][1,4]dioxin-6-yl)-5-(2,4-dioxo-1,2dihydroquinazolin-3(4H)yl)pentanamide]	–	8.8 ± 1.5 µM
O=C(CCCCCCn1c(=O)[nH]c2ccccc2c1=O)Nc1cncc(Br)c1 [compound 6, N-(5-bromopyridin-3-yl)-7-(2,4-dioxo-1,2-dihydroquinazolin-3(4H)-yl)heptanamide]	48.6 ± 3.8%	–
O=C(CCCCCn1c(=O)[nH]c2ccccc2c1=O)Nc1ccc2c(c1)OCCO2 [compound 4, N-(2,3-dihydrobenzo[b][1,4]dioxin-6-yl)-6-(2,4-dioxo-1,2-dihydroquinazolin-3(4H)-yl)hexanamide]	–	4.5 ± 1 µM
O=C(CCCCCn1c(=O)[nH]c2ccccc2c1=O)Nc1ccc(I)nc1 [compound 7, 6-(2,4-dioxo-1,2-dihydroquinazolin-3(4H)-yl)-N-(6-iodopyridin-3-yl)hexanamide]	67.2 ± 4.4%	–
